# Several values for one entry are separate records, joined by “and”; a condition that tells them apart may be missing. Equal entries are not always repeated.
# Test system: HT1080 cells
# Assay: NMR quantification of cellular metabolites; as to 1-Methylnicotinamide (NMR metabolite level): unit not given here; as to Acetic acid (NMR metabolite level): unit not given here; as to Glutathione (NMR metabolite level): unit not given here; as to Glycerol 3-phosphate (NMR metabolite level): unit not given here; as to Glycine (NMR metabolite level): unit not given here; as to L-Lactic acid (NMR metabolite level): unit not given here; as to L-Lysine (NMR metabolite level): unit not given here; as to L-Tyrosine (NMR metabolite level): unit not given here; as to L-Valine (NMR metabolite level): unit not given here; as to Phosphocreatine (NMR metabolite level): unit not given here; as to Pyroglutamate (NMR metabolite level): unit not given here; as to Taurine (NMR metabolite level): unit not given here; as to Tryptophan (NMR metabolite level): unit not given here
# Format: cell-based, human
# Conditions: Exp #1-5
smiles,measurement,setting,value
O=C(Nc1ccccc1C(=O)O)c1ccc(Oc2ccc(C(=O)Nc3ccccc3C(=O)O)cc2)cc1 [CP1],UDP-N-Acetylglucosamine (NMR metabolite level),T3: 3h CP1-treated,0.00171 and 0.001573 and 0.002001 and 0.002147 and 0.00178
same,UDP-glucose (NMR metabolite level),T3: 3h CP1-treated,0.0008858 and 0.0008772 and 0.001067 and 0.000997 and 0.0009053
same,myo-Inositol (NMR metabolite level),T3: 3h CP1-treated,0.01161 and 0.01092 and 0.01214 and 0.0158 and 0.01228
same,1-Methylnicotinamide (NMR metabolite level),T24: 24h CP1-treated,0.0006688 and 0.0007226 and 0.00078 and 0.0009117 and 0.0008029
same,2-Hydroxyglutarate (NMR metabolite level),T24: 24h CP1-treated,0.01123 and 0.01613 and 0.01677 and 0.01849 and 0.01776
same,ADP (NMR metabolite level),T24: 24h CP1-treated,0.0007644 and 0.000746 and 0.001198 and 0.0008611 and 0.0008531
same,ATP (NMR metabolite level),T24: 24h CP1-treated,0.0006449 and 0.0006294 and 0.0008357 and 0.0006838 and 0.0006775
same,Acetic acid (NMR metabolite level),T24: 24h CP1-treated,0.003416 and 0.003823 and 0.003426 and 0.003622 and 0.002835
same,Choline (NMR metabolite level),T24: 24h CP1-treated,0.0001911 and 0.0002098 and 0.0002507 and 0.0002533 and 0.0003011
same,Creatine (NMR metabolite level),T24: 24h CP1-treated,0.005637 and 0.005968 and 0.005822 and 0.005673 and 0.00685
same,Dimethylamine (NMR metabolite level),T24: 24h CP1-treated,0.01722 and 0.009371 and 0.01178 and 0.009801 and 0.01006
same,Fumaric acid (NMR metabolite level),T24: 24h CP1-treated,0.0003583 and 0.0003497 and 0.0003621 and 0.0004052 and 0.0003764
same,Glutathione (NMR metabolite level),T24: 24h CP1-treated,0.00848 and 0.006947 and 0.009193 and 0.008991 and 0.00828
same,Glycerol 3-phosphate (NMR metabolite level),T24: 24h CP1-treated,0.005316 and 0.003498 and 0.00363 and 0.003634 and 0.003759
same,Glycerophosphocholine (NMR metabolite level),T24: 24h CP1-treated,0.0005972 and 0.0004662 and 0.000585 and 0.0005065 and 0.0006022
same,Glycine (NMR metabolite level),T24: 24h CP1-treated,0.01727 and 0.01921 and 0.02014 and 0.02011 and 0.0205
same,L-Alanine (NMR metabolite level),T24: 24h CP1-treated,0.006617 and 0.007063 and 0.007716 and 0.007015 and 0.00695
same,L-Arginine (NMR metabolite level),T24: 24h CP1-treated,0.002054 and 0.001585 and 0.002006 and 0.001975 and 0.001807
same,L-Aspartic acid (NMR metabolite level),T24: 24h CP1-treated,0.003296 and 0.003217 and 0.003844 and 0.003495 and 0.003463
same,L-Glutamic acid (NMR metabolite level),T24: 24h CP1-treated,0.03982 and 0.04634 and 0.04538 and 0.047 and 0.04456
same,L-Glutamine (NMR metabolite level),T24: 24h CP1-treated,0.05231 and 0.05105 and 0.05192 and 0.04586 and 0.05314
same,L-Isoleucine (NMR metabolite level),T24: 24h CP1-treated,0.007907 and 0.007716 and 0.008078 and 0.007775 and 0.007703
same,L-Lactic acid (NMR metabolite level),T24: 24h CP1-treated,0.08184 and 0.08616 and 0.0795 and 0.07679 and 0.07736
same,L-Leucine (NMR metabolite level),T24: 24h CP1-treated,0.00676 and 0.006597 and 0.007883 and 0.007192 and 0.007251
same,L-Lysine (NMR metabolite level),T24: 24h CP1-treated,0.002293 and 0.002238 and 0.002674 and 0.002431 and 0.002409
same,L-Methionine (NMR metabolite level),T24: 24h CP1-treated,0.002389 and 0.002331 and 0.002786 and 0.00276 and 0.002509
same,L-Phenylalanine (NMR metabolite level),T24: 24h CP1-treated,0.004013 and 0.003916 and 0.004123 and 0.003976 and 0.003889
same,L-Threonine (NMR metabolite level),T24: 24h CP1-treated,0.01522 and 0.01471 and 0.01638 and 0.01537 and 0.01478
same,L-Tyrosine (NMR metabolite level),T24: 24h CP1-treated,0.004491 and 0.004849 and 0.004652 and 0.004635 and 0.00424
same,L-Valine (NMR metabolite level),T24: 24h CP1-treated,0.007668 and 0.007693 and 0.007744 and 0.00775 and 0.007678
same,"N,N-Dimethylformamide (NMR metabolite level)",T24: 24h CP1-treated,0.0002389 and 0.0002331 and 0.0002786 and 0.0002533 and 0.0002509
same,NAD+ (NMR metabolite level),T24: 24h CP1-treated,0.002341 and 0.002611 and 0.002619 and 0.002533 and 0.002635
same,NADH (NMR metabolite level),T24: 24h CP1-treated,0.0002389 and 0.0002331 and 0.0003343 and 0.0002786 and 0.0002509
same,Phosphocreatine (NMR metabolite level),T24: 24h CP1-treated,0.001027 and 0.001002 and 0.001198 and 0.001165 and 0.001179
same,Phosphorylcholine (NMR metabolite level),T24: 24h CP1-treated,0.002054 and 0.002168 and 0.002256 and 0.002102 and 0.002158
same,Pyroglutamate (NMR metabolite level),T24: 24h CP1-treated,0.005255 and 0.004942 and 0.004596 and 0.005597 and 0.005796
same,Pyruvate (NMR metabolite level),T24: 24h CP1-treated,0.001983 and 0.001422 and 0.001532 and 0.001798 and 0.001932
same,Serine (NMR metabolite level),T24: 24h CP1-treated,0.005566 and 0.004965 and 0.004429 and 0.005901 and 0.004792
same,Taurine (NMR metabolite level),T24: 24h CP1-treated,0.00922 and 0.008998 and 0.009499 and 0.01099 and 0.01194
same,Tryptophan (NMR metabolite level),T24: 24h CP1-treated,0.0007883 and 0.0007693 and 0.0007243 and 0.0007851 and 0.0008029
same,UDP-N-Acetylglucosamine (NMR metabolite level),T24: 24h CP1-treated,0.003941 and 0.005105 and 0.006156 and 0.005242 and 0.005269
same,UDP-glucose (NMR metabolite level),T24: 24h CP1-treated,0.001935 and 0.001888 and 0.002981 and 0.002533 and 0.002559
same,myo-Inositol (NMR metabolite level),T24: 24h CP1-treated,0.007859 and 0.009021 and 0.01109 and 0.01281 and 0.00961

# Reference: paper PMC9652372, “Glycolytic flux control by drugging phosphoglycolate phosphatase” (Nature Communications, 2022)
